pKi: −log10 of the molar value. Non-standard residues stand in square brackets, D forms with d. Residues, ends and D or L forms follow the SMILES beside them. No end group written: not given here. *: point of attachment. 4Abz = Nc1ccc(C(=O)O)cc1; Nphe = O=C(O)CNCc1ccccc1; Bz = O=C(c1ccccc1)*; CH2Cl = ClC*
Test system: primary cells or cell lines
Experiment: not given
Settings: inhibition of one or more ICE homologs; cited from earlier work

**Q.** Which inhibition of apoptosis does the source give for “Tyr-Val-Ala-Asp-chloromethylketone (YVAD-CH2Cl)” here?
**A.** Its inhibition of apoptosis is “inhibition of apoptosis”.

Biological target: T1, ICE (Homo sapiens, UniProt P29466)
T1 construct: The active enzyme exists as a tetramer of two p20 and two p10 subunits
T1 sequence (P29466 120-297 limits assumed): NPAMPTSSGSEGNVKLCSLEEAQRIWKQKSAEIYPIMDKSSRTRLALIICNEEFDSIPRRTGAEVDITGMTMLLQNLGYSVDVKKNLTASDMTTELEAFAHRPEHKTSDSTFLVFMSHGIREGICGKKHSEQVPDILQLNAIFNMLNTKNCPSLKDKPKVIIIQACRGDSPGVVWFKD
T1 sequence (P29466 317-404 limits assumed): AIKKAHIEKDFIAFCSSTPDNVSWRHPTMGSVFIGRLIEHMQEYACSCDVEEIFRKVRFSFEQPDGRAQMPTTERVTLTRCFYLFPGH
Experiment: Inhibition of ICE: enzyme assay with UV-visible substrate (Succinyl-Tyr-Val-Ala-Asp-pNitroanilide)
Assay type: biochemical
Settings: UV-visible substrate assay of Example 1; pH 8.1, 37° C., 80 μM substrate
Excerpt: The term "Ki " refers to a numerical measure of the effectiveness of a compound in inhibiting the activity of a target enzyme such as ICE. Lower values of Ki reflect higher effectiveness. The Ki value is a derived by fitting experimentally determined rate data to standard enzyme kinetic equations (see I. H. Segel, Enzyme Kinetics, Wiley-Interscience, 1975).
1. Enzyme assay with UV-visible substrate
This assay is run using an Succinyl-Tyr-Val-Ala-Asp-pNitroanilide substrate. Synthesis of analogous substrates is described by L. A. Reiter (Int. J. Peptide Protein Res. 43, 87-96 (1994)). The assay mixture contains:
65 μl buffer (10 mM Tris, 1 mM DTT, 0.1% CHAPS @pH 8.1)
10 μl ICE (50 nM final concentration to give a rate of ~1 mOD/min)
5 μl DMSO/Inhibitor mixture 20 μl 400 μM Substrate (80 μM final concentration)
100 μl total reaction volume
The visible ICE assay is run in a 96-well microtiter plate. Buffer, ICE and DMSO (if inhibitor is present) are added to the wells in the order listed. The components are left to incubate at room temperature for 15 minutes starting at the time that all components are present in all wells. The microtiter plate reader is set to incubate at 37° C. After the 15 minute incubation, substrate is added directly to the wells and the reaction is monitored by following the release of the chromophore (pNA) at 405-603 nm at 37° C. for 20 minutes. A linear fit of the data is performed and the rate is calculated in mOD/min. DMSO is only present during experiments involving inhibitors, buffer is used to make up the volume to 100 μl in the other experiments.
The following Ki values were determined for compounds 706, 710, 719, 720, 725-727, 729, 731, 733, 743, 745, and 747-757 using the assay described in Example 1.

**Q.** With `CC(C)[C@H](NC(=O)c1ccccc1)C(=O)N(CC(=O)N[C@@H](C=O)CCC(=O)O)Cc1ccccc1` [Compound 754, 4(R)-(2(S)-((2-Benzoylamino-3-methylbutyryl)benzylamino)acetylamino)-5-oxopentanoic Acid] (Bz-Val-[Nphe]-[dE]-aldehyde) as the compound, how does the pKi read?
**A.** Its pKi is 5.60.

**Q.** With `CC(C)[C@H](NC(=O)c1ccccc1)C(=O)N(CC(=O)N[C@H](C=O)CC(=O)O)Cc1ccccc1` [Compound 706, 3(S)-(2-((2(S)-Benzoylamino-3-methylbutyryl)benzylamino)acetylamino)-4-oxo-butyric Acid] (Bz-Val-[Nphe]-Asp-aldehyde) as the compound, how does the pKi read?
**A.** The pKi was 7.16.

**Q.** With `CC(C)[C@H](NC(=O)C(=O)c1ccccc1)C(=O)N(CC(=O)N[C@H](C=O)CC(=O)O)Cc1ccccc1` [Compound 753, 3(S)-(2(S)-(Benzyl(3-methyl-2-(2-oxo-2-phenylacetylamino)butyryl)amino)acetylamino)-4-oxo-butyric Acid] as the compound, how does the pKi read?
**A.** Its pKi is 7.28.

**Q.** With `CC(C)[C@H](NC(=O)c1ccccc1)C(=O)N(CC(=O)N[C@@H](CC(=O)O)C(=O)c1nc2cc(Cl)cc(Cl)c2o1)Cc1cccnc1` [Compound 720] as the compound, how does the pKi read?
**A.** Its pKi is 7.48.

**Q.** With `COc1cc(C(=O)C(=O)N[C@H](C(=O)N(CC(=O)N[C@H](C=O)CC(=O)O)Cc2ccccc2)C(C)C)cc(OC)c1OC` [Compound 752] as the compound, how does the pKi read?
**A.** Its pKi is 7.21.

**Q.** With `CC(C)[C@H](NC(=O)c1cccc2ccccc12)C(=O)N(CC(=O)N[C@H](C=O)CC(=O)O)Cc1ccccc1` [Compound 749, 3(S)-(2(S)-(Benzyl-(2-((napthalene-1-carbonyl)amino)-3-methylbutyryl)amino)acetylamino)-4-oxo-butyric Acid] as the compound, how does the pKi read?
**A.** Its pKi is 8.15.

**Q.** With `CC(C)[C@H](NC(=O)c1ccccc1)C(=O)N(CC(=O)N[C@@H](CC(=O)O)C(=O)c1nc2cc(F)cc(F)c2o1)C1Cc2ccccc2C1` [Compound 726] as the compound, how does the pKi read?
**A.** Its pKi is 7.82.

**Q.** With `CC(C)[C@H](NC(=O)OCc1ccccc1)C(=O)N(CC(=O)N[C@H](C=O)CC(=O)O)C1Cc2ccccc2C1` [Compound 757, 3(S)-(2-((2(S)-(Benzyloxycarbonylamino-3-methylbutyryl)-indan-2-yl)amino)acetylamino)-4-oxobutyric Acid] as the compound, how does the pKi read?
**A.** The pKi was 6.77.

**Q.** With `CC(C)[C@H](NC(=O)c1nccc2ccccc12)C(=O)N(CC(=O)N[C@H](C=O)CC(=O)O)Cc1ccccc1` [Compound 748, 3(S)-(2(S)-(Benzyl-(2-((isoquinoline-1-carbonyl)amino)-3-methylbutyryl)amino)acetylamino)-4-oxo-butyric Acid] as the compound, how does the pKi read?
**A.** Its pKi is 8.22.

**Q.** With `CC(C)[C@H](NC(=O)c1nccc2ccccc12)C(=O)N(CC(=O)N[C@@H](C=O)CCC(=O)O)Cc1ccccc1` [Compound 755, 4(R)-(2(S)-(Benzyl-(2-((isoquinoline-1-carbonyl)amino)-3-methylbutyryl)amino)acetylamino)-5-oxopentanoic Acid] as the compound, how does the pKi read?
**A.** The pKi was 6.41.

**Q.** With `CC(=O)Nc1cccc(CN(CC(=O)N[C@H](C=O)CC(=O)O)C(=O)[C@@H](NC(=O)c2ccccc2)C(C)C)c1` [Compound 743, 3(S)-(2-((3-Acetylaminobenzyl)-(2(S)-benzoylamino-3-methylbutyryl)amino)acetylamino)-4-oxo-butyric Acid] as the compound, how does the pKi read?
**A.** Its pKi is 7.22.

**Q.** With `CC(=O)Nc1ccc(C(=O)N[C@H](C(=O)N(CC(=O)N[C@H](C=O)CC(=O)O)Cc2ccccc2)C(C)C)cc1` [Compound 751, 3(S)-(2-((2(S)-(4-Acetylaminobenzoyl)amino-3-methylbutyryl)benzylamino)acetylamino)-4-oxo-butyric Acid] (Ac-[4Abz]V[Nphe]D-aldehyde) as the compound, how does the pKi read?
**A.** The pKi was 7.15.

**Q.** With `CC(C)(C)[C@H](NC(=O)c1nccc2ccccc12)C(=O)N(CC(=O)N[C@H](C=O)CC(=O)O)Cc1ccccc1` [Compound 747, 3(S)-(2(S)-(Benzyl-(2-((isoquinoline-1-carbonyl)amino)-3,3-dimethylbutyryl)amino)acetylamino)-4-oxo-butyric Acid] as the compound, how does the pKi read?
**A.** Its pKi is 7.62.

**Q.** With `CC(C)[C@H](NC(=O)c1ccc(Cl)cc1)C(=O)N(CC(=O)N[C@@H](CC(=O)O)C(=O)c1ncc(-c2c(Cl)cccc2Cl)o1)C1Cc2ccccc2C1` [Compound 733] as the compound, how does the pKi read?
**A.** Its pKi is 8.12.

**Q.** With `CC(C)[C@H](NC(=O)c1ccccc1)C(=O)N(CC(=O)N[C@@H](CC(=O)O)C(=O)c1nc2cc(F)cc(Cl)c2o1)Cc1ccccc1` [Compound 719] as the compound, how does the pKi read?
**A.** The pKi was 7.70.

**Q.** With `CC(C)[C@H](NC(=O)c1ccc(Cl)cc1)C(=O)N(CC(=O)N[C@H](C=O)CC(=O)O)Cc1ccccc1` [Compound 750, 3(5)-(2-((2(S)-(4-Chlorobenzoyl)amino-3-methylbutyryl)benzylamino)acetylamino)-4-oxo-butyric Acid] as the compound, how does the pKi read?
**A.** Its pKi is 7.05.

**Q.** With `CC(C)[C@H](NC(=O)c1ccccc1)C(=O)N(CC(=O)N[C@H](C=O)CC(=O)O)Cc1cccc(NS(C)(=O)=O)c1` [Compound 745] as the compound, how does the pKi read?
**A.** The pKi was 7.35.

— patent publication US5843904A, “Inhibitors of interleukin-1βconverting enzyme” (Vertex Pharmaceuticals, Inc., priority 1995, dated 1998)
